Where “and” joins values, the source holds several entries; their conditions need not be identical. Identical values can stand only once.
Experiments:
[1] = tested on: LPS-activated peritoneal macrophages; experiment: LDH release from LPS-activated macrophage cultures; assay type: cell-based, mouse; settings: 30 min
Experimental: FIG. 6B is a graphic representation showing the percentage of lactate dehydrogenase (LDH) released from the total culture associated LDH in the samples described in FIG. 6A;
Macrophages from wild type and P2×7^−/− animals (1×10^6 cells seeded per well of 6-well cluster plates) were stimulated with 1 μg/ml E. coli LPS (Serotype 055 B5 obtained from Sigma; St. Louis, Mo.) for 75-90 minutes and then rinsed with 2 ml of methionine-free RPMI medium containing 100 units/mi penicillin, 100 μg/ml streptomycin, 1% dialyzed FBS, 1 μg/ml LPS, and 25 mM Hepes, pH 7.3 (Pulse Medium). One ml of Pulse Medium containing 83 μCi/Ml of ^35S-methionine (Amersham Corp, Chicago, Ill.) then was added to each well, and the cells were labeled at 37° C. for 1 hour. These labeled cells subsequently were rinsed twice with RPMI 1640 medium containing 100 units/mil penicillin, 100 μg/ml streptomycin, 1% FBS, 2 mM glutamine, 1 μg/ml LPS and 25 mM Hepes, pH 7.3 (Chase Medium). One ml of Chase Medium (containing no effector (control) or containing 05 mM ATP, or 20 mM nigericin) was then added to each well, and the cells were chased at 37° C. for 30 minutes. Media were harvested and clarified by centrifugation (6000×g for 5 minutes) to remove cells and/or cell debris. Cell monolayers were suspended in 1 ml of a lysis buffer composed of 1% Triton X-100, 150 mM NaCl, 25 mM Hepes, pH 7, 0.1 mM PMSF, 1 mg/ml ovalbumin, 1 mM iodoacetic acid, 1 μg/ml pepstatin, and 1 μg/ml leupeptin. Clarified media samples were adjusted to the same final Triton X-100 and protease inhibitor concentrations by addition of aliquots from concentrated stocks of these reagents. […] Immnunoprecipitates were fractionated by SDS gel electrophoresis, the quantity of radioactivity associated with individual IL-1β polypeptide species was determined by scanning dried gels with a Phosphoimager.

IL-6 = experiment: ATP-induced IL-6 release in LPS-primed mice (peritoneal lavage ELISA); assay type: in vivo, mouse; settings: for IL-6 (ng/ml), ATP Challenge, P2×7R-/-: LPS-primed P2×7R-/- mice; for IL-6 (ng/ml), ATP Challenge, P2×7R-/- / IL-6 (ng/ml), ATP Challenge, WT: ip ATP, peritoneal lavage; for IL-6 (ng/ml), ATP Challenge, WT: LPS-primed wild-type mice
Experimental: (§1) ATP-Induced IL-1β Posttranslational Processing In Vivo Groups of mice were injected intraperitoneally (ip) with 1 μg of LPS. Two hours after this LPS injection, mice were injected ip with either 30 mM ATP (adjusted to pH 7) or PBS. Mice were sacrificed 30 minutes or 120 minutes after the ATP or PBS injection and peritoneal cavities were lavaged, each with 3 ml of RPMI (5% FCS). Samples of peritoneal lavages were spun down, supernatants were collected and tested for the presence of IL-1β and IL-6 using ELISAs (Amersham Life Sciences, Arlington Heights, Va. and Endogen, Woburn, Mass., respectively).
As noted earlier, IL-1 signaling often leads to the production of other cytokines such as IL-6 (Allen et al. (2000) J. Exp. Med. 191:859-869). […] Two hours later an injection of ATP (or PBS) was administered to promote IL-1 posttranslational processing and the mice were incubated for an additional 4 hours. Peritoneal lavages were collected at several times during the course of the experiment and analyzed for IL-6 by ELISA. […] Mice that received an initial priming injection of LPS followed by PBS yielded levels of IL-6 at 1 and 2 hours (4 to 5 ng/ml) that were elevated above those recovered from mice injected with the combination of phosphate buffered saline and ATP (FIG. 8). By 4 hours, however, IL-6 levels recovered from the LPS-PBS treated animals returned to baseline (FIG. 9).

IL-1β = experiment: ATP-induced IL-1β posttranslational processing in vivo (peritoneal lavage ELISA); parameters: species or system mouse
Experimental: as §1

[2] = tested on: LPS-activated peritoneal macrophages; experiment: Stimulus-induced IL-1β posttranslational processing in vitro; assay type: cell-based, mouse; settings: 35S-methionine-labeled, 30 min, 5 mM ATP or 20 μM nigericin
Experimental: Macrophages from wild type and P2×7^−/− animals (1×10^6 cells seeded per well of 6-well cluster plates) were stimulated with 1 μg/ml E. coli LPS (Serotype 055 B5 obtained from Sigma; St. Louis, Mo.) for 75-90 minutes and then rinsed with 2 ml of methionine-free RPMI medium containing 100 units/mi penicillin, 100 μg/ml streptomycin, 1% dialyzed FBS, 1 μg/ml LPS, and 25 mM Hepes, pH 7.3 (Pulse Medium). One ml of Pulse Medium containing 83 μCi/Ml of ^35S-methionine (Amersham Corp, Chicago, Ill.) then was added to each well, and the cells were labeled at 37° C. for 1 hour. These labeled cells subsequently were rinsed twice with RPMI 1640 medium containing 100 units/mil penicillin, 100 μg/ml streptomycin, 1% FBS, 2 mM glutamine, 1 μg/ml LPS and 25 mM Hepes, pH 7.3 (Chase Medium). One ml of Chase Medium (containing no effector (control) or containing 05 mM ATP, or 20 mM nigericin) was then added to each well, and the cells were chased at 37° C. for 30 minutes. Media were harvested and clarified by centrifugation (6000×g for 5 minutes) to remove cells and/or cell debris. Cell monolayers were suspended in 1 ml of a lysis buffer composed of 1% Triton X-100, 150 mM NaCl, 25 mM Hepes, pH 7, 0.1 mM PMSF, 1 mg/ml ovalbumin, 1 mM iodoacetic acid, 1 μg/ml pepstatin, and 1 μg/ml leupeptin. Clarified media samples were adjusted to the same final Triton X-100 and protease inhibitor concentrations by addition of aliquots from concentrated stocks of these reagents. After a 30 minute incubation on ice, all samples were clarified by centrifugation at 45,000 rpm for 30 minutes in a TLA-45 rotor (Beckman, Palo Alto, Calif.), the resulting supernatants were recovered, and IL-1β was immunoprecipitated from these samples using a goat anti-murine IL-1β serum obtained from Dr. Ivan Otterness (Pfizer Central Research, Groton, Conn.). Immnunoprecipitates were fractionated by SDS gel electrophoresis, the quantity of radioactivity associated with individual IL-1β polypeptide species was determined by scanning dried gels with a Phosphoimager.

other P2× receptors = settings: cited from earlier work
[3] = tested on: mouse peritoneal macrophages; experiment: YoPro Yellow uptake by peritoneal macrophages; assay type: cell-based; settings: 5 mM ATP
Experimental: Peritoneal macrophages were washed with Isotonic Medium (15 mM Hepes, pH 7.2, 135 mM NaCl, 5 mM KCl, […], […]) by centrifugation and the resulting cell pellet was suspended in Isotonic Medium to achieve a final cell concentration of 1×10^6 cells/ml. Fifty μl of this cell suspension then was placed into wells of a Microfluor “B” U-bottom plate (Dynatech, Chantilly, Va.), and 50 μl of 2 μM YoPro Yellow (Molecular Probes, Eugene, Ore.); the fluorescent dye was dissolved in Isotonic Medium. Wells were then adjusted to 5 mM ATP or 0.0075% saponin by addition of concentrated stock solutions of these agents. Fluorescence was monitored as a function of time at 37° C., excitation, 450 nm/emission, 530 nm.

P2×7R = settings: cited from earlier work

SMILES	release of lactate dehydrogenase (LDH) ([1]; wild-type macrophages)	IL-6 (ng/ml), ATP Challenge, P2×7R-/- (IL-6; 30 min post challenge) [ng/mL]	IL-6 (ng/ml), ATP Challenge, P2×7R-/- (IL-6; 120 min post challenge) [ng/mL]	IL-6 (ng/ml), ATP Challenge, WT (IL-6; 30 min post challenge) [ng/mL]	IL-6 (ng/ml), ATP Challenge, WT (IL-6; 120 min post challenge)	peak lavage fluid IL-6 (IL-6; wild-type mice, LPS at time 0, ATP at 2 hours, 4 hour time point) [ng/mL]	lavage fluid IL-6 (IL-6; wild-type mice, priming injection of PBS followed 2 hours later by ATP)	IL-1β in peritoneal lavage after ATP challenge (IL-1β; LPS-primed mice heterozygous (+/-) for the P2×7R disruption, 30 min)	IL-1 (ng/ml), ATP Challenge, WT (IL-1β; LPS-primed wild-type mice, ip ATP, 120 min post challenge, peritoneal lavage)	extracellular 17 kDa IL-1β as percentage of total radiolabeled IL-1β recovered ([2]; P2×7R-/- macrophages)	extracellular 17 kDa IL-1β as percentage of total radiolabeled IL-1β recovered ([2]; wild-type macrophages) [%]	ATP concentrations at which receptors activate (other P2× receptors) [µM]	YoPro Yellow fluorescence intensity ([3]; P2×7R-/- macrophages)	YoPro Yellow fluorescence intensity ([3]; wild-type macrophages)	levels of ATP required to achieve activation (P2×7R) [mM]	release of lactate dehydrogenase (LDH) ([1]; P2×7R-/- macrophages)
Nc1ncnc2c1ncn2[C@@H]1O[C@H](COP(=O)(O)OP(=O)(O)OP(=O)(O)O)[C@@H](O)[C@H]1O [ATP]	enhanced release	9 ± 1	6	8.2 ± 1.7	17 ng/mL and 16.8 ± 2.3 ng/mL	> 25	did not contain significant levels of IL-6 at any time	A similar pattern	0.34 ng/mL and 0.33 ± 0.08 ng/mL	did not release any radiolabeled IL-1β	64	≤ 100	did not result in time-dependent increase in fluorescence intensity	time dependent increase in fluorescence intensity	> 1	–
CO[C@@H]1C[C@@H](C[C@H]2CC[C@H](C)[C@H]([C@@H](C)C(=O)O)O2)O[C@]2(O[C@](C)([C@H]3CC[C@@](C)([C@@H]4O[C@@H]([C@H]5O[C@@](O)(CO)[C@H](C)C[C@@H]5C)C[C@@H]4C)O3)C[C@H]2C)[C@@H]1C [nigericin]	comparable quantities of LDH	–	–	–	–	–	–	–	–	74%	66	–	–	–	–	comparable quantities of LDH

— patent US6677501B2, “P2X7 receptor-deficient mice and uses thereof” (Pfizer, Inc., priority 2000, dated 2004)
